Test results from PubChem BioAssay (NCI).
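GI50 is the concentration that inhibits growth by half. TGI: concentration producing complete growth inhibition.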

Columns and labels:
Test in all cases: NCI anticancer screen, dose series, 384-well format
M14 melanoma = tested on: M14 melanoma
RXF 393 renal = tested on: RXF 393 renal
LOX IMVI melanoma = tested on: LOX IMVI melanoma
SF-295 CNS = tested on: SF-295 CNS
786-0 renal = tested on: 786-0 renal
UO-31 renal = tested on: UO-31 renal
BT-549 breast = tested on: BT-549 breast
MOLT-4 leukemia = tested on: MOLT-4 leukemia
HCC-2998 colon = tested on: HCC-2998 colon
COLO 205 colon = tested on: COLO 205 colon
HCT-15 colon = tested on: HCT-15 colon
MCF7 breast = tested on: MCF7 breast
CCRF-CEM leukemia = tested on: CCRF-CEM leukemia

Cn1cc(CNCC2CCN(c3ncc(C(=O)NO)cn3)CC2)c2ccccc21
GI50 (M14 melanoma): < 10 nM
TGI (M14 melanoma): 105 nM
GI50 (RXF 393 renal): 16.2 nM
TGI (RXF 393 renal): 35.5 nM
GI50 (LOX IMVI melanoma): 12.1 nM
TGI (LOX IMVI melanoma): 24.9 nM
GI50 (SF-295 CNS): 16.1 nM
TGI (SF-295 CNS): 54.4 nM
GI50 (786-0 renal): 22.8 nM
TGI (786-0 renal): 120 nM
GI50 (UO-31 renal): 27.3 nM
TGI (UO-31 renal): 123 nM
GI50 (BT-549 breast): 21.6 nM
TGI (BT-549 breast): 75.8 nM
GI50 (MOLT-4 leukemia): < 10 nM
TGI (MOLT-4 leukemia): < 10 nM
GI50 (HCC-2998 colon): < 11.1 nM
TGI (HCC-2998 colon): 24.8 nM
GI50 (COLO 205 colon): < 10 nM
TGI (COLO 205 colon): 18.3 nM
GI50 (HCT-15 colon): 49.4 nM
TGI (HCT-15 colon): 300 nM
GI50 (MCF7 breast): < 10 nM
TGI (MCF7 breast): 20.9 nM
GI50 (CCRF-CEM leukemia): < 10 nM
TGI (CCRF-CEM leukemia): < 10.8 nM
